Test results taken from PMC8536124 (International Journal of Molecular Sciences, 2021).
Marks after values point to notes of the source that are not given here.

What was measured:
[1] = system: SK-MEL-28 cells; experiment: DAPI staining, nuclear morphology; assay type: cell-based, human; details: SK-MEL28, 24 h
Procedure: (§1) The cells were cultured in 24-well plates at 2 × 10^5 cells/well. Two samples (compounds 4 and 6) of three different concentrations (0.1, 1, and 5 μM) and three concentrations of DMSO (0.1, 1, 5 μM) were used to stimulate the cells. The immunofluorescent staining technique was performed according to the protocol in [92]. Thus, after 24 h of stimulation, the cells were fixed by adding 4% paraformaldehyde and incubating at room temperature for one hour. After fixation, cell permeability was performed with 2% Triton X solution in phosphate-buffered saline (PBS). After 30 min of incubation at room temperature, blocking of permeabilization was performed with 0.01% Triton X solution and incubation at RT for one hour. DAPI staining was used in a concentration of 300 nM to visualize the nuclei. The cells were analyzed by fluorescence microscope at 40× magnification using CellSens V1.15 software (Olympus, Tokyo, Japan) and Image J software.

[2] = system: RPMI cells; experiment: DAPI staining, nuclear morphology; assay type: cell-based, human; details: 24 h
Procedure: as §1

[3] = Compound stability in cell culture media (TLC); details: 5 μM in DMEM and EMEM, 72 h
Procedure: Prior to this assay, compound stability in cell culture media was evaluated after 72 h, using a thin-layer chromatography (TLC)-based protocol, with the necessary modifications [57, 58].
The stability of the assessed compounds in the culture media was evaluated by thin layer chromatography (TLC), this representing a viable and easy to achieve technique for this specific endpoint [57, 58]. […] The solutions were incubated for 72 h, after which the medium was extracted in CHCl3. […] The plate was successively developed with I2 vapors, UV light, and bromocresol green to determine various additional spots corresponding to some decomposition byproducts.

[4] = system: chorioallantoic membrane; experiment: Chorioallantoic membrane (CAM) angiogenesis assay; assay type: in vivo, chicken; details: 1 µM in 0.5% DMSO
Procedure: CAM test also allows the assessment of a drug’s activity on tumor proliferation and distant metastasis, as well as drug toxicity. […] No anomalies were noticed in the angiogenic process after treatment with 0.5% DMSO in distilled water used as control.
The basic CAM assay protocol makes use of fertilized chicken eggs, incubated at 37 °C, under controlled humidity. On the third day of incubation (embryonic day of development, EDD), a small opening was made at one end of the eggs and 5–6 mL of albumen were removed, thus facilitating the separation of the chorioallantoic membrane. On EDD 4, a window was cut on the upper side of the egg and subsequently resealed, returning the specimens to the incubator. On EDD 7 (0 h), 10 µL of each test solution were administered inside a plastic ring previously applied on the intensely vascularized surface of the CAM [93]. All compounds were tested at a concentration of 1 µM in DMSO 0.5%, which also represented the control sample. All samples were daily applied in the same volume, for 72 h. For each analyzed sample, 5 eggs were used, and all samples were applied in triplicate. Macroscopic evaluation was daily performed in ovo by means of stereomicroscopy (ZEISS SteREO Discovery.V8, Göttingen, Germany), and all images were registered and processed by Axiocam 105 color, AxioVision SE64. Rel. 4.9.1 Software, (ZEISS Göttingen, Germany), ImageJ (ImageJ Version 1.50e, https://imagej.nih.gov/ij/index.html, accessed on 3 June 2021) and GIMP software (GIMP v 2.8, https://www.gimp.org/, accessed on 3 June 2021).

[5] = system: Bcl-XL gene, RPMI; experiment: Gene expression by qRT-PCR; assay type: cell-based, human; details: 1 μM, mean 2^∆∆Ct, DMSO 18.563
Excerpt: Apoptosis at the cellular level can be initiated through the mitochondrial intrinsic pathway, which involves the Bcl-2 family of genes that includes the anti-apoptotic Bcl-XL and Bcl-2, as well as the pro-apoptotic Bak and Bax members; the balance between the expressions of anti- and pro-apoptotic proteins ensures physiological cell death. In cancers, the alterations occurring in gene expressions due to down- or up-regulations may result in delayed apoptosis and malignant proliferation. Thus, active compounds that modify the abnormal expression of genes involved in the apoptotic process may successfully act as anticancer agents. We tested the effect of compounds 4 and 6 on the expression of anti-apoptotic (Bcl-XL and Bcl-2) and pro-apoptotic (Bak and Bax) genes (Table 4, Figure 8).
Total RNA was extracted using peqGold RNAPureTM Package (Peqlab Biotechnology GmbH, Erlangen, Germany) according to the manufacturer’s instructions, and a DS-11 spectrophotometer (DeNovix, Wilmington, DE, USA) was used to measure total concentration of RNA. Reverse transcription was performed using the Maxima® First Strand cDNA Synthesis Kit (Fermentas, St. Leon-Rot, Germany), and the mix was incubated in the Tadvanced biometra product line (Analytik Jena AG, Jena, Germany) with a thermal program of 25 °C for 10 min, 85 °C for 5 min. Quantitative real-time PCR was conducted in a Quant Studio 5 real-time PCR system, (Thermo Fisher Scientific, Inc., Waltham, MA, USA), with analysis being performed in 20 µL reactions containing Power SYBR-Green PCR Master Mix (Thermo Fisher Scientific, Inc.). Cycling conditions were: 95 °C for 10 s followed by 40 cycles of denaturing at 95 °C for 15 s, and annealing and extension at 60 °C for 1 min.

[6] = system: SR; experiment: NCI-60 screening (SRB); assay type: cell-based, human; details: five-dose; for GI50 / CC50: Homo sapiens; for CC50: read-out: LC50 (the source's name)
[7] = EDD7 to EDD10, up to 72 h post-treatment

Compound: CCN1CCN(C(=O)[C@]23CC[C@@H](C)[C@H](C)[C@H]2C2=CC[C@@H]4[C@@]5(C)CCC(=O)C(C)(C)[C@@H]5CC[C@@]4(C)[C@]2(C)CC3)CC1 [Compound 4, N-(3-oxo-ursan-12-en-28-oyl)-ethylpiperazine]
- nuclear morphology (DAPI) ([1]; 0.1 μM): intense condensation of the cell nuclei
- nuclear morphology (DAPI) ([1]; 1 μM): chromatin condensation is accompanied by the formation of apoptotic bodies
- nuclear morphology (DAPI) ([1]; 5 μM): incipient nuclear fragmentation
- nuclear morphology (DAPI) ([2]; 0.1 µM): massive chromatin condensation
- nuclear morphology (DAPI) ([2]; 1 µM): visible nuclear fragmentation
- nuclear morphology (DAPI) ([2]; 5 µM (highest concentration)): blebbing of the nuclear membrane
- stability in cell culture media (TLC) [3]: no signs of decomposition
- effect on angiogenesis (CAM) [4, 7]: no alterations were noticed in terms of angiogenesis

Compound: CCN1CCN(C(=O)[C@]23CCC(C)(C)C[C@H]2C2=CC[C@@H]4[C@@]5(C)C/C(=C/c6cccnc6)C(=O)C(C)(C)[C@@H]5CC[C@@]4(C)[C@]2(C)CC3)CC1 [Compound 6]
- nuclear morphology (DAPI) ([1]; 0.1, 1, 5 μM): dose-dependent effect was recorded in terms of membrane blebbing, nuclear condensation, and fragmentation
- nuclear morphology (DAPI) ([2]; 0.1 µM): nuclear fragmentation
- nuclear morphology (DAPI) ([2]; 1 µM): chromatin condensation
- nuclear morphology (DAPI) ([2]; 5 µM (highest concentration)): apoptotic bodies
- Expression of Bcl-XL gene, Mean [5]: 1.050 *
- stability in cell culture media (TLC) [3]: no signs of decomposition
- GI50 [6]: 0.959 µM
- CC50 [6]: > 100 µM
- TGI [6]: 5.13 µM
- effect on angiogenesis (CAM) [4, 7]: did not significantly alter the angiogenesis process
- effect on angiogenesis (CAM) ([4]; after 24 h): weak antiangiogenic process

Compound: CCN1CCN(C(=O)[C@]23CC[C@@H](C)[C@H](C)[C@H]2C2=CC[C@@H]4[C@@]5(C)C/C(=C/c6cccnc6)C(=O)C(C)(C)[C@@H]5CC[C@@]4(C)[C@]2(C)CC3)CC1 [Compound 9, N-(2-{3-Pyridinylidene}-3-oxoursan-12-en-28-oyl)-ethylpiperazine]
- GI50 [6]: 2.18 µM
- CC50 [6]: > 100 µM
- TGI [6]: 6.35 µM
